According to article PMC5512185 (International Journal for Parasitology: Drugs and Drug …, 2017):

Assays:
Murine Splenocytes = assay: Cytotoxicity on uninfected ex vivo explants; assay type: cell-based, mouse; settings: for SIS Selectivity Index (mouse splenocytes): CC50 non-infected mouse splenocytes / EC50 amastigotes; for CC50: read-out: CC50 Murine Splenocytes, CC50 ± SD, uninfected splenocytes, 48 h
Human HepG2 = assay: Cytotoxicity on HepG2 cells; assay type: cell-based; settings: for SIh Selectivity Index (human HepG2): CC50 HepG2 / EC50 amastigotes; for CC50: read-out: CC50 Human HepG2, CC50 ± SD, 48 h
[1] = test system: L. infantum promastigotes; assay: Promastigote in vitro assay; assay type: cell-based; settings: Leishmania infantum, read-out: EC50 L. infantum promastigotes
[2] = Cytotoxicity on uninfected ex vivo explants; assay type: cell-based, mouse; settings: mouse, uninfected ex vivo splenic explants (murine splenocytes)
[3] = Cytotoxicity on HepG2 cells; assay type: cell-based, human; settings: human, HepG2 cells (ATCC HB-8065)
Leishmania tubulin = Leishmania tubulin (Leishmania infantum, UniProt A0A381MCS3+A4HTR0); assay: Tubulin polymerization assay; assay type: biochemical, L. infantum
Chain of Leishmania tubulin (A4HTR0 1-443): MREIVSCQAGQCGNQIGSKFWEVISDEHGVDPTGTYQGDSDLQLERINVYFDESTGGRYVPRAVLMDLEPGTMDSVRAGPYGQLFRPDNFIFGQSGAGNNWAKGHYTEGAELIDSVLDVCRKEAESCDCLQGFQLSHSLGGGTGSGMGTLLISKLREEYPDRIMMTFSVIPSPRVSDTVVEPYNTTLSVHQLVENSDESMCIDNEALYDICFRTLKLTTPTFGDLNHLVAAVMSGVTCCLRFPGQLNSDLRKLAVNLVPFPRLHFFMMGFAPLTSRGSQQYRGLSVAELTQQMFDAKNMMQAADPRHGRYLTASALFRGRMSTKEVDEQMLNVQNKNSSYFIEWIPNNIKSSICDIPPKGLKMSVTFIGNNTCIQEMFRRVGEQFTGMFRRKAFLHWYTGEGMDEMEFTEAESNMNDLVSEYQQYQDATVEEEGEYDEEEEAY
Chain of Leishmania tubulin (A0A381MCS3 1-451): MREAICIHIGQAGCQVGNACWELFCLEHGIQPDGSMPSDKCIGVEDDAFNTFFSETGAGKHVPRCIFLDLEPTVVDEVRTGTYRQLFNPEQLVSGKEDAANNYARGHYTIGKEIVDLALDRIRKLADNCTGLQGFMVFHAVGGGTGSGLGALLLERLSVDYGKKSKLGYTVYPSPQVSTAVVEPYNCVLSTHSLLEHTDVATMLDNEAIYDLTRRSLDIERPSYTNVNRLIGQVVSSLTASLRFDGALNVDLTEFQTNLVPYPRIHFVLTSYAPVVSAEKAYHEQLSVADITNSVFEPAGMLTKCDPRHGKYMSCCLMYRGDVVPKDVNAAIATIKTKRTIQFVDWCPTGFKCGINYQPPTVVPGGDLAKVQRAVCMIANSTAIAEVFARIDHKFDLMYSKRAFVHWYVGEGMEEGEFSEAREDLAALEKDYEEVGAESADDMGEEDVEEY

Row | Compound | SIS Selectivity Index (mouse splenocytes) (Murine Splenocytes) | CC50 (Murine Splenocytes) [µM] | SIh Selectivity Index (human HepG2) (Human HepG2) | CC50 (Human HepG2) [µM] | EC50 [1] [µM] | CC50 at 48 h ([2]; BALB/c) [µM] | CC50 at 48 h [3] [µM] | CC50 at 48 h [2] [µM] | IC50 Leishmania tubulin polymerization inhibition (Leishmania tubulin; IC50 ± SD, 1.2 mg/mL tubulin, 37 °C) | Inhibition of tubulin polymerization (Leishmania tubulin; 25 μM, positive control)
1 | COc1cc([C@@H]2c3cc4c(cc3C(=O)[C@H]3COC(=O)[C@H]23)OCO4)cc(OC)c1OC [Compound 3, podophyllotoxone] | <0.6 | 60.6 ± 7.7 | <0.1 | 10.3 ± 0.9 | – | – | – | – | – | –
2 | COC(=O)[C@@H]1C(C=O)=Cc2cc3c(cc2[C@H]1c1cc(OC)c(OC)c(OC)c1)OCO3 [Compound 14, podophyllic aldehyde] | > 10.8 | – | >10.8 | – | 89.5 ± 4.3 | > 100 | > 100 | – | – | –
3 | CCCCCCCCCCCCCCCCOP(=O)([O-])OCC[N+](C)(C)C [Miltefosine, miltefosine, reference compound] | 26.9 | – | 21 | – | 5.9 ± 1.4 | – | 50.4 ± 4.3 | 64.7 ± 7 | – | –
4 | COc1cc([C@@H]2c3cc4c(cc3C[C@H]3COC(=O)[C@@H]32)OCO4)cc(OC)c1OC [Compound 1, deoxypodophyllotoxin] | <1.0 | 98.6 ± 3.1 | – | > 100 | – | – | – | – | – | –
5 | COc1cc([C@@H]2c3cc4c(cc3[C@H](O)[C@H]3COC(=O)[C@H]23)OCO4)cc(OC)c1OC [Compound 2a, podophyllotoxin] | >7.4 | – | 0.1 | – | > 100 | – | 0.7 | > 100 | under the μM level | –
6 | CC[C@]1(O)C[C@@H]2CN(CCc3c([nH]c4ccccc34)[C@@](C(=O)OC)(c3cc4c(cc3OC)N(C)[C@H]3[C@@](O)(C(=O)OC)[C@H](OC(C)=O)[C@]5(CC)C=CCN6CC[C@]43[C@@H]65)C2)C1 [Vinblastine, reference compound] | – | – | – | – | – | – | – | – | – | inhibits completely
7 | COc1cc([C@@H]2c3cc4c(cc3[C@@H](O)[C@H]3COC(=O)[C@H]23)OCO4)cc(OC)c1OC [Compound 2b, epipodophyllotoxin] | – | – | <0.3 | – | > 100 | – | 30.6 ± 2.1 | > 100 | – | –
